Assay results published in US20180153826A1, “MATERIALS AND METHODS FOR THE TREATMENT OF CYSTIC FIBROSIS” (UNIVERSITY OF FLORIDA RESEARCH FOUNDATION, INC., priority 2015, published 2018).

Assays:
[1] = system: cAMP-dependent HCO3^− secretion; assay: Cyclic nucleotide (cAMP)-dependent HCO3^− secretion, lumen Cl^−/SCFA-free; design: species or system rat; settings: luminal; glibenclamide 100 μM, GlyH-101 10 μM, NPPB 100 μM (data not shown)
Procedure: Stripped mucosal sheets were mounted into Ussing chambers (window area=0.3-0.5 cm^2, Physiologic Instruments, San Diego, Calif.). The mucosal side of tissue was bathed with an unbuffered HCO3^--free Cl^- Ringer solution (see Table 2 for detailed composition) circulated by a gas lift with 100% O2 while the serosal side was bathed with buffered Cl^- Ringer solution (pH 7.4) that contained 25 mM HCO3^- and gassed with 5% CO2/95% O2. Each side contained 3-5 ml of solution and the temperature of the solution was adjusted to and maintained at 37° C. by heated water-jacketed reservoirs. Experiments were performed under short-circuit conditions (Voltage-Current Clamp, VCC MC8; Physiologic Instruments, San Diego, Calif.) to maintain the transepithelial potentials at 0 mV, except for brief interruption at 20-second intervals for recording of open-circuit potential (VT, mV). Two types of approaches were used in the measurement of colonic HCO3^- secretion, namely, measurement of lumen pH or pH stat titration of net alkalinization by colonic mucosa. […] Radiometer Analytical, Villeurbanne, France). The amount of the acid delivered per unit time per surface area was used to quantitate HCO3^- secretion by the mucosa. Measurements were recorded continuously and mean values for consecutive 5 or 10 min periods were averaged. […] The short-circuit current (Isc) was measured in microamperes (μA) and converted into μEq/hr/cm^2. Tissue resistance (R, Ω cm^2) was calculated from Ohm's law. Colon segments were prepared and treated as in the secretagogue-induced HCO3^- secretion experiments except that they were bathed luminally with HCO3^--free Ringer solution that contained no isobutyrate and no Cl^-. Cyclic nucleotide-dependent HCO3^- secretion was calculated as […] (the difference between JHCO3 after minus JHCO3 before the addition of forskolin). When inhibitor was used, it was added at 30 min before […] or forskolin.

distal colonic mucosa = assay: Lumen alkalinization response to [Ca^2+]o (lumen pH, Ussing chamber); design: species or system rat; settings: for lumen alkalinization rate: mean±SE, n=3
Procedure: Experiments were performed using non-fasting male Sprague-Dawley rats and C57BL/6 mice. Rats weighting 100-400 g were obtained from Charles River Laboratories. Mice lacking CaSR expression in intestinal epithelial cells (CaSR^−/−) and their CaSR^+/+ littermates were bred and maintained. CaSR^−/− mice were generated as previously described. Briefly, CaSR flox/flox mice were bred with transgenic mice expressing Cre Recombinase under the control of the villin 1 promoter and genotyped prior to all experiments after an approximate 10-12 generations. Mice were used at 5-10 weeks of age. Animals were fed and maintained on regular chow (Harlan) with free access to water before sacrifice. Animals were sacrificed with standard CO2 inhalation followed by cervical dislocation. The colons were isolated, cut open along the mesenteric border into a flat sheet, and flushed with ice-cold Ringer solutions. Mucosa from the distal colon were carefully hand-stripped off of serosal, muscular and submucosal layers as described and a pair of adjacent mucosal segments were incised and mounted into Ussing chambers. In some experiments, stripped mucosa was incised longitudinally into two equal pieces in order to facilitate comparisons between control and treatment. Short-circuit current and transepithelial resistance differences between these two adjacent tissues were less than 15%.
(§1) Stripped mucosal sheets were mounted into Ussing chambers (window area=0.3-0.5 cm^2, Physiologic Instruments, San Diego, Calif.). The mucosal side of tissue was bathed with an unbuffered HCO3^−-free Cl^− Ringer solution (see Table 2 for detailed composition) circulated by a gas lift with 100% O2 while the serosal side was bathed with buffered Cl^− Ringer solution (pH 7.4) that contained 25 mM HCO3^− and gassed with 5% CO2/95% O2. Each side contained 3-5 ml of solution and the temperature of the solution was adjusted to and maintained at 37° C. by heated water-jacketed reservoirs. Experiments were performed under short-circuit conditions (Voltage-Current Clamp, VCC MC8; Physiologic Instruments, San Diego, Calif.) to maintain the transepithelial potentials at 0 mV, except for brief interruption at 20-second intervals for recording of open-circuit potential (VT, mV).
(§2) Two types of approaches were used in the measurement of colonic HCO3^− secretion, namely, measurement of lumen pH or pH stat titration of net alkalinization by colonic mucosa. […] The amount of the acid delivered per unit time per surface area was used to quantitate HCO3^− secretion by the mucosa. Measurements were recorded continuously and mean values for consecutive 5 or 10 min periods were averaged. The rate of HCO3^− secretion (JHCO3) is expressed as μEq/hr/cm^2. The short-circuit current (Isc) was measured in microamperes (μA) and converted into μEq/hr/cm^2. Tissue resistance (R, Ω cm^2) was calculated from Ohm's law.
Two equal pieces of mucosa from each colon that were obtained by longitudinal division along the antimessenteric border were mounted into two Ussing chambers. […] After 15 to 30 min, when stabilization was achieved and basal lumen pH recordings performed, HCO3^−-free Ringer solution in the serosal side was replaced by 25 mM HCO3-containing Ringer solution, and changes in lumen pH were monitored and recorded for 15 to 30 min. […]

ENaC = ENaC activity as amiloride-sensitive bumetanide-insensitive Isc, weanling distal colon; design: species or system rat; settings: 2.5% w/w added to diet vs normal 1%; 3 week old rats, distal colon
Procedure: FIG. 17. The inhibitory effect of […] on ENaC was examined electrophysiologically by measuring amiloride-sensitive short-circuit current responses in the presence or absence of […]. Weanling infant distal colonic mucosa, which expresses highest activity of ENaC, is employed and mounted in Ussing chamber. FIGS. 19A-19C. […] Here, the activity of ENaC is measured as amiloride-sensitive bumetanide-insensitive Isc. […] FIGS. 20A-20C. […] The activity of ENaC was measured as amiloride-sensitive bumetanide-insensitive Isc. […] Secretory Cl current is mediated by apical CFTR. This Cl secretory Isc is sensitive to bumetanide, applied to the basolateral side of the epithelium. There, bumetanide inhibits Cl entry from blood into the cell; thus, in the presence of bumetanide, the secretory Cl current is eliminated. Absorptive Na current is mediated by apically located epithelial Na channel (ENaC). This latter current is particularly high in this weanling age and is sensitive to amiloride, when it is applied luminally.

[2] = system: Cl^− secretion induced by forskolin; settings: rat distal colon; cited from earlier work
[3] = system: CFTR-mediated and non CFTR-mediated HCO3^− secretion; assay: Isc and pH stat HCO3^− secretion with/without lumen Cl^−, CFTR inhibitors or DIDS (FIGS. 5, 6); settings: R568 response
From the text: FIG. 3. Experimental approach 1: The Ussing chamber pH-stat set up used to monitor and measure HCO3^- secretion by colonic mucosa. FIG. 4. Experimental Approach 2: Measurement of HCO3^- secretion by colonic mucosa in the presence of apical NPPB/Glibenclamide. FIGS. 5A-5F. Activation of CaSR by […] inhibits CFTR-mediated HCO3^- secretion (JHCO3) and ISC but stimulates non CFTR-mediated HCO3^- secretion (JHCO3) and Isc. Physiological approach assayed with, versus without, lumen Cl^-. FIGS. 6A-6F. Activation of CaSR by […] inhibits CFTR-mediated HCO3^- secretion (JHCO3) and ISC but stimulates CFTR-independent HCO3^- secretion (JHCO3) and Isc. Pharmacological approach assayed with, and without, CFTR transporter inhibitors or AE inhibitor DIDS.

Cl^−/HCO3^− exchange = Cl^−/HCO3^− exchange activity (Cl^−-dependent HCO3^− secretion); design: species or system rat; settings: pretreatment, 100 μM, lumen side (data not shown)
Procedure: as §1, with “Experiments were performed under short-circuit conditions (Voltage-Current Clamp, VCC MC8; Physiologic Instruments, San Diego, Calif.) to maintain the transepithelial potentials at 0 mV, except for brief interruption at 20-second intervals for recording of open-circuit potential (VT, mV).” left out
as §2, with “law. […]” for “law.”

In the case of O=C(CNc1ccc2ccccc2c1)N/N=C/c1cc(Br)c(O)c(Br)c1O [GlyH-101], the “effect of pretreatment on forskolin stimulatory and R568 inhibitory effects on Isc” value [1] is reported as “abolished”.
In the case of COc1ccc(Cl)cc1C(=O)NCCc1ccc(S(=O)(=O)NC(=O)NC2CCCCC2)cc1 [glibenclamide], the “effect of pretreatment on forskolin stimulatory and R568 inhibitory effects on Isc” value [1] is reported as “abolished”.
For [Ca+2] [Ca^2+], the “basal Isc” value (distal colonic mucosa; 0.5 mM [Ca^2+]o) was 1.44±0.32 μEq/hr/cm^2, the “basal Isc” value (distal colonic mucosa; 1.2 mM [Ca^2+]o) was 1.10±0.10 μEq/hr/cm^2 and the lumen alkalinization rate (distal colonic mucosa; [Ca^2+]o = 0.5 mM) was 0.013±0.002 pH unit/min/cm^2. The lumen alkalinization rate (distal colonic mucosa; [Ca^2+]o = 1.2 mM) was 0.031±0.002 pH unit/min/cm^2 and the “amiloride-sensitive ENaC-mediated basal Isc” value (ENaC) was “suppressed”.
In the case of CCCCNc1cc(C(=O)O)cc(S(N)(=O)=O)c1Oc1ccccc1 [Bumetanide], the “inhibition of forskolin-induced Cl^− secretion” value [2] is listed as roughly 70%.
With O=S(=O)(O)c1cc(N=C=S)ccc1C=Cc1ccc(N=C=S)cc1S(=O)(=O)O [DIDS, 4,4′-diisothiocyano-2,2′-stilbenedisulfonic acid] the AE-associated current ([3]; FIG. 6C vs. 6A) was “partially inhibited”, the “CFTR activity (current)” value ([3]; FIG. 6C vs. 6A) was “inhibited” and the “HCO3^− secretion rate” value ([3]; FIG. 6F with 6D) was “stimulated or did not change”. For the same compound, the “luminal Cl^−-dependent HCO3^− secretory mechanism” value (Cl^−/HCO3^− exchange) was “partially abolished”.
For O=C(O)c1cc([N+](=O)[O-])ccc1NCCCc1ccccc1 [NPPB, 5-nitro-2-(3-phenylpropylamino)benzoic acid], the “effect of pretreatment on forskolin stimulatory and R568 inhibitory effects on Isc” value [1] was “abolished”.
In the case of C[N+](C)(C)CCOC(N)=O [Carbachol], the “lumen pH response” value (distal colonic mucosa; 100 μM, serosa, positive control) is reported as “initial transient increase followed by a sustained increase in lumen pH”.
